Where two headings read alike, the source gives them in different places.
Columns and labels:
[1] = target: T1, FOF1-ATPase of WT E. coli membranes (Escherichia coli, UniProt P68699); assay: biochemical; assay type: biochemical; conditions: for ATPase activity during the last 3 min of assays: 0.1 mM DCCD alone (trace 1); for Ki: read-out: Ki (early inhibition)
T1 construct: To express haploid levels of EcFOF1 containing WT-ε or ε88-stop; expressed in transfected cells; host or cells: E. coli strain XH1 (chromosomal atpC deletion) carrying pMBε1; inverted membrane vesicles
Description: ATP hydrolysis is enzyme-coupled to conversion of NADH to NAD^+, which results in decreased light absorbance; thus, a larger rate of ATP hydrolysis is indicated by a steeper downward slope. The system also rapidly regenerates ATP, minimizing the concentration of product ADP during the assay. Unless noted, assays were preincubated to establish a steady state hydrolysis rate (see “Methods”) before the ‘zero’ point of measurements.
(§1) Plasmid pXH302S, which encodes the WT atpC gene and expresses near haploid levels of the ε subunit, was subjected to fusion PCR mutagenesis to construct plasmid pMBε1, with an N-terminal affinity tag ([…]) added prior to the initial Met residue. To express the ε88-stop subunit, an AfeI-ScaI restriction fragment of WT pMBε1 was replaced by the analogous fragment from pH6ε88-stop[46]. To express haploid levels of EcFOF1 containing WT-ε or ε88-stop, the appropriate version of pMBε1 was transformed into E. coli strain XH1, which has a chromosomal deletion of the atpC gene for ε[54]. For these transformed strains, cultures were grown and inverted membrane vesicles (IMV) were prepared according to [55]. WT ε, with the same N-terminal His6-tag, was over-expressed from pH6ε and purified as described.
ATP hydrolysis by membrane vesicles was assayed spectrophotometrically[57] at 30 °C using an open-chamber, diode array spectrophotometer (Hewlett Packard 8453 UV–Vis) as described in[29]. The assay medium (1 ml per assay) contained 20 mM Mops/Tris, pH 8.0, 0.2 mM EDTA, 10 mM CH3COOK, 1 mM ATP, 3.2 mM Mg(CH3COO)2, 1 mM phosphoenolpyruvate, at least 0.3 mM NADH, 0.1 mg/ml pyruvate kinase, 0.1 mg/ml lactate dehydrogenase, 5 mM KCN, and 5 μM carbonyl cyanide 4-(trifluoromethoxy)-phenylhydrazone. […] To avoid interference of this increase with the changes of ATPase activity induced by venturicidins, unless indicated otherwise, measurement of ATPase activities were started 60 min after addition of membranes to the complete assay medium. […] To keep absorbance between 1.5 and 2 units after the 60-min preincubation, up to 0.2 mM additional NADH was added to the assay medium. In figures displaying activity traces, some traces are shifted vertically for visual clarity.

[2] = target: T2, E. coli membranes with FOF1 lacking the ε subunit's CTD (ε88-stop) (Escherichia coli, UniProt P68699); assay: ATP hydrolysis by ε88-stop E. coli membranes, enzyme-coupled spectrophotometric assay; assay type: biochemical
T2 construct: To express haploid levels of EcFOF1 containing WT-ε or ε88-stop; expressed in transfected cells; host or cells: E. coli strain XH1 (chromosomal atpC deletion) carrying the ε88-stop version of pMBε1; inverted membrane vesicles
Source text: We next investigated whether the ε-inhibited state of EcFOF1 also impacts interactions of ventA with the enzyme. The N-terminal domain (NTD) of ε is required for FOF1 assembly and functional coupling of F1 to FO in eukaryotic and bacterial species; the C-terminal domain (CTD) of ε can auto-inhibit FOF1 and isolated F1 from some bacteria and from chloroplasts, but the mitochondrial homolog (δ) is not inhibitory[39],[40]. Thus we measured the effects of ventA on ATPase activity of E. coli membranes expressing ε88-stop, which lacks the autoinhibitory εCTD (Fig. 3). From Table 1 (100% ATPase values), it is clear that selenite activates membrane ATPase more (fourfold) for ε88-stop than for WT (2.8-fold). This is because, without the inhibitory εCTD, more enzyme complexes shift to the MgADP-inhibited state, which can be activated by selenite. […] In contrast, early inhibition of ATPase by ventA has similar Ki values for WT and ε88-stop membranes in the absence (0.7 vs 0.5 μM) or in the presence of selenite (0.23 vs 0.09 μM).
as §1
(§2) ATP hydrolysis by membrane vesicles was assayed spectrophotometrically[57] at 30 °C using an open-chamber, diode array spectrophotometer (Hewlett Packard 8453 UV–Vis) as described in[29]. The assay medium (1 ml per assay) contained 20 mM Mops/Tris, pH 8.0, 0.2 mM EDTA, 10 mM CH3COOK, 1 mM ATP, 3.2 mM Mg(CH3COO)2, 1 mM phosphoenolpyruvate, at least 0.3 mM NADH, 0.1 mg/ml pyruvate kinase, 0.1 mg/ml lactate dehydrogenase, 5 mM KCN, and 5 μM carbonyl cyanide 4-(trifluoromethoxy)-phenylhydrazone. As noted before, the rate of ATP hydrolysis by membranes increases to a small degree during assays. This is due, at least in part, to dissociation of a small fraction of EcF1 and/or ε from the membranes, since the increase is inhibited by added ε (e.g., Fig. 5). To avoid interference of this increase with the changes of ATPase activity induced by venturicidins, unless indicated otherwise, measurement of ATPase activities were started 60 min after addition of membranes to the complete assay medium. This minimizes further increases in ATPase rate during control assays to < 15%. To keep absorbance between 1.5 and 2 units after the 60-min preincubation, up to 0.2 mM additional NADH was added to the assay medium. In figures displaying activity traces, some traces are shifted vertically for visual clarity.

[3] = target: T3, PaFOF1 in membranes from P. aeruginosa strain PAO1 (Pseudomonas aeruginosa, UniProt Q9HT15); assay: ATP hydrolysis by P. aeruginosa PAO1 membranes, enzyme-coupled spectrophotometric assay; assay type: biochemical
T3 construct: endogenous in cells; host or cells: P. aeruginosa strain PAO1, inverted membrane vesicles
Description: P. aeruginosa strain PAO1 was grown in LB medium at 37 °C as described. For preparation of IMV, final cultures used 1 L of LB per 2L baffled flask and were inoculated from an overnight culture at an initial OD600 ~ 0.025. Cultures were shaken at 250 rpm and monitored until they reached mid- to late-logarithmic growth phase (OD600, 1–1.4). Cultures were chilled and subsequent steps for cell lysis and isolation of IMV were done at 4 °C. Cells were sedimented by centrifugation (3,700 × g, 30 min). Cells from 1 to 2 L of culture (~ 2–3 g wet cells/L) were resuspended in 25–40 ml of STEM buffer (TEM buffer plus sucrose[55]), transferred to a 50 ml Oak Ridge tube, sedimented again (11,617 × g, 10 min), resuspended in 20–40 ml of STEM and frozen at -80 °C. Thawed cells were lysed by two sequential passages through an SLM-Aminco French pressure cell at ~ 16,000 psi, essentially as described for E. coli[55]; the pressure cell was enclosed in a clear biohazard bag (MiniGrip, IP2024B3T) during use to contain any aerosols formed. Unlysed cells and cell wall debris were removed by centrifugation (50 ml Oak Ridge tubes, 16,743 × g, 25 min): the supernate was diluted with MTGM7.5 buffer (50 mM MOPS-TRIS, 10%(v/v) glycerol, 5 mM Mg(CH3COO)2, pH 7.5) and centrifugation was repeated at least twice, recovering the supernate each time. The final supernatant lysate was stored at -80 °C. To isolate IMV, the cleared lysate was thawed quickly and diluted with MTGM7.5 as needed to fill 1 or 2 polycarbonate tubes for use in a Beckman Ti70 rotor. The IMV (membranes) were sedimented by ultracentrifugation (250,000 × g max) for 1 h, the membranes were resuspended in MTGM7.5 buffer to fill one Ti70 tube and ultracentrifugation was repeated for 45 min. The membranes were resuspended in a small volume of MTGM7.5 buffer (typically ≥ 10 mg membrane protein/ml) and homogenized manually (Potter–Elvehjem type). Small aliquots of the final membrane sample were quick-frozen in liquid nitrogen and stored at − 80 °C.
as §2

P. aeruginosa = system: P. aeruginosa; parameters: method as in PMID 6406266; conditions: cited from earlier work
E. coli membrane ATPase = conditions: read-out: half-maximal inhibitory concentration of venturicidin; obtained from earlier data; more divergent assay conditions; cited from earlier work
mitoFOF1 = system: mitoFOF1; parameters: method as in PMID 124668; conditions: cited from earlier work
F1 = target: F1; parameters: method as in PMID 23400782; conditions: read-out: KD of ε dissociation from F1; cited from earlier work
[4] = system: FOF1 from M. smegmatis (MsFOF1); parameters: method as in PMID 33299175; conditions: cited from earlier work
S. aureus = system: S. aureus; parameters: method as in PMID 28874470; conditions: cited from earlier work
[5] = WT, 38.5 mM selenite (Fig. S1 panel B)

With `C(=NC1CCCCC1)=NC1CCCCC1` [DCCD, N,N′-dicyclohexylcarbodiimide] the “ATPase activity during the last 3 min of assays” value ([1]; 38.5 mM selenite) was 0.85 U/mg, the “ATPase activity during the last 3 min of assays” value ([1]; no selenite) was 0.20 (± 0.02) U/mg and the inhibition at 100 µM ([1]; read-out: Inhibition of ATPase activity) was 73%.

With `O=[Se](O)O` [selenite] the “100% ATPase (specific activity just before addition of ventA)” value (shortened to “100% ATPase”) ([1]; WT + 38.5 mM selenite) was 2.3 (± 0.2) U/mg, the “Stimulation of ATPase activity” value ([1]; optimal selenite (38.5 mM), WT membranes) was 2.8 fold and the “Activation of membrane ATPase” value ([2]; selenite, ε88-stop membranes) was “fourfold”. The “100% ATPase” value ([2]; ε88stop + 38.5 mM selenite) was 3.4 (± 0.5) U/mg and the “Activation of membrane ATPase” value ([3]; selenite) was “~ fourfold”.

In the case of `[N-]=[N+]=[N-]` [azide], the “Inhibition of ATPase activity” value ([1]; 6 µM azide in the assay) is reported as ~ 50%, the “100% ATPase” value ([1]; WT + 6 μM azide) is reported as 0.42 (± 0.02) U/mg and the “Inhibition of ATPase activity” value ([3]; excess azide) is reported as 80–90%.

In the case of venturicidin, the “Decrease of cellular ATP” value (P. aeruginosa; anaerobic fermentation of L-arginine) is given as “~ tenfold”, the “Time to eliminate Δψ and flagellar motility” value (P. aeruginosa; anaerobic) is given as at most 3.5 min and the “Reduction of cellular ATP” value (P. aeruginosa; during respiration) is given as “~ fivefold”. For the same compound, the IC50 (E. coli membrane ATPase) was about 7 µM.

In the case of `CC[C@H]1/C=C/C=C/C[C@@H](C)[C@H](O)[C@@](C)(O)C(=O)[C@@H](C)[C@H](O)[C@@H](C)C(=O)[C@@H](C)[C@H](O)[C@@H](C)/C=C/C(=O)O[C@@H]2[C@H](C)[C@H](CC1)O[C@]1(CC[C@H](C)[C@H](C[C@@H](C)O)O1)[C@H]2C` [oligomycin], the “Effect on ATPase activity of membrane and detergent-solubilized mitoFOF1” value (mitoFOF1) is given as “inhibited ATPase activity of both forms”.

For `CCC(=O)C(C)C(O)C(C)CC(C)C1OC(=O)CC2(O)CC=C(C)C(O2)C(C)=CCCCC(OC2CC(O)C(O)C(C)O2)C=CC(C)CC1C` (stereo not shown) [ventB, venturicidin B], the “Reduction of Ki by selenite” value ([1]; WT) was 2.3 fold, the “y0 (ATPase at saturating venturicidin)” value [1, 5] was 28% (±7) and the “y1 (venturicidin-sensitive ATPase, best fit of early rates)” value [1, 5] was 73% (±6). For the same compound, the “y1 (venturicidin-sensitive ATPase, best fit of early rates)” value ([1]; WT, absence of selenite (Fig. S1 panel A), y0 fixed as 0) was 136% (±7), the “Ki for inhibition of early rate relative to respective Ki of ventA” value ([1]; WT, with or without selenite) was “≥ tenfold” and the Ki [1, 5] was 4 µM. For the same compound, the Ki ([1]; WT, absence of selenite (Fig. S1 panel A)) was 9 µM.

For “ε: purified WT ε subunit of E. coli FOF1 with N-terminal His6-tag, added exogenously”, the “Late rate (last 3 min of assay)” value ([1]; 67 nM ε added after 9.5 μM ventA, 38.5 mM selenite (Fig. 5A #4)) was 0.28 U/mg, the “Late rate (last 3 min of assay)” value ([1]; 67 nM ε, 38.5 mM selenite (Fig. 5A #2)) was 1.4 U/mg and the “Immediate inhibition of ATPase activity” value ([1]; excess ε (67 nM), without ventA, selenite present) was ~ 30%. For the same compound, the “Immediate inhibition of ventA-recovered ATPase activity” value ([1]; excess ε added after 9.5 μM ventA, selenite present (Fig. 5A trace 4)) was ~ 90% and the Kd (F1) was under 0.001 µM.

For `COc1nc2ccc(Br)cc2cc1[C@@H](c1ccccc1)[C@@](O)(CCN(C)C)c1cccc2ccccc12` [BDQ, bedaquiline], the “Effect of micromolar BDQ on ATPase activity” value ([4]; micromolar BDQ) is listed as “most activity was restored” and the “Inhibition of ATPase” value ([4]; nanomolar BDQ) is listed as ~ 80%.

In the case of Oligomycin A, the “Adjuvant activity for polymyxin B” value (S. aureus) is given as “potent adjuvant”.

Source: PMC8249445, “Complex effects of macrolide venturicidins on bacterial F-ATPases likely contribute to their action as antibiotic adjuvants” (Scientific Reports, 2021)
